Where two headings read alike, the source gives them in different places.
Columns and labels:
[1] = target: glyceraldehyde-3-phosphate dehydrogenase (GAPDH) (Escherichia coli, UniProt P0A9B2); test: GAPDH kinetic assay, spectrophotometric reduction of NAD+ (340 nm); assay type: biochemical, E. coli; conditions: for inhibition of GAPDH (in words): Example 24 (FIG. 6)
Description: For GAPDH analysis, the compounds were screened using a kinetic protocol that spectrophotometrically evaluates reduction of NAD+.
(§1) Stock solutions of each of the reagents were prepared in the following concentrations. Dilutions of the stock solutions were prepared prior to running the assay in the concentrations indicated below.
The GAPDH reaction was monitored at 340 nm prior to and after addition of the inhibitor to detect background reaction with the inhibitor. Solutions of 100 μl of the inhibitors incubated for 6 minutes at 25° C. in a 990 μl of a solution containing 125 mM triethanolamine, pH 7.5, 145 μM glyceraldehyde 3-phosphate (GAP), 0.211 mM NAD, 5 mM sodium arsenate, and 3 mM β-metcaptoethanol (2-BME). The reaction was then initiated with 10 μl of E. coli GAPDH (1:200 dilution of 1.0 mg/ml). After the enzyme was added, the solution was mixed for 20 seconds, and the reaction was run for 10minutes. After a 50 second lag, the samples were read in a Cary spectrophotometer at 340 nm. Reading of the samples was continued until 300 seconds. The final concentration of DMSO in a cuvette was about 5% of the total assay volume. Cuvette #1 contained the control reaction (no inhibitor).
GAP for use in this experiment was deprotected from the diethyl acetal in the following manner. Water was boiled in recrystallizing dish. Dowex (1.5 mg) and GAP (200 mg; SIGMA G-5376) were weighed and placed in a 15 ml conical tube. The Dowex and GAP were resuspended in 2 ml dH2O, followed by shaking of the tube until the GAP dissolved. The tube was then immersed, while shaking, in the boiling water for 3 minutes. Next, the tube was placed in an ice bath to cool for 5 minutes. As the sample cooled, a resin settled to the bottom of the test tube, allowing removal of the supernatant with a pasteur pipette. The supernatant was filtered through a 0.45 or 0.2 μM cellulose acetate syringe filter.
The filtered supernatant was retained, and another 1 ml of dH2O was added to the resin tube. The tube was then shaken and centrifuged for 5 minutes at 3,000 rpm. The supernatant was again removed with a pasteur pipette and passed through a 0.45 or 0.2 μM cellulose acetate syringe filter. The two supernatant aliquots were then pooled to provide a total GAP concentration of about 50 mM. The GAP was then divided into 100 μl aliquots and stored at −20° C. until use.

[2] = target: 1-deoxy-D-xylulose-5-phosphate reductase (DOXPR) (Escherichia coli, UniProt P45568); test: DOXPR kinetic assay, spectrophotometric oxidation of NADPH (340 nm); assay type: biochemical
Description: For DOXPR analysis, the compounds were screened using a kinetic protocol that spectrophotometrically evaluates oxidation of NADPH.
Stock solutions of each of the reagents were prepared in the following concentrations. Dilutions of the stock solutions were prepared prior to running the assay in the concentrations indicated below. DOXPR was diluted in 10 mM HEPES at a pH of 7.4.
The DOXPR reaction was monitored at 340 nm prior to and after addition of the inhibitor to detect background reaction with the inhibitor. Solutions of the inhibitors in DMSO were prepared to provide a final DMSO concentration of 5% of the total assay volume. These solutions were incubated for 6 minutes at 25° C. in a 990 μl of a solution containing 0.1 M HEPES, pH 7.4, 1 mM MnCl2 1.15 mM DOXP, and 8 μM NADPH. The oxidation reaction was then initiated with 10 μl of DOXP reductoisomerase (10 μg/ml). After the enzyme was added, the solution was mixed for 20 seconds, and the reaction was run for 10 minutes. After a 50 second lag, the samples were read in a Cary spectrophotometer at 340 nm. Reading of the samples was continued until 300 seconds. Cuvette #1 contained the control reaction (no inhibitor), and cuvette #2 contained the positive control reaction in which Cibacron Blue at 10.32 μM was substituted for inhibitor to yield 70 to 80% inhibition. The substrate was kept at a level at least 10 times the Km.

[3] = target: inosine-5′-monophosphate dehydrogenase (IMPDH); test: IMPDH kinetic assay, spectrophotometric reduction of NAD+ (340 nm); assay type: biochemical; conditions: for IC50: common ligand mimics, Examples 23/24
Description: For IMPDH analysis, the compounds were screened using a kinetic protocol that spectrophotometrically evaluates reduction of NAD+.
as §1
The IMPDH reaction was monitored at 340 nm prior to and after addition of the inhibitor to detect background reaction with the inhibitor. Solutions of 100 μl of the inhibitors in DMSO were prepared to provide a final DMSO concentration of 5% of the total assay volume. These solutions were incubated for 6 minutes at 37° C. in a 992 μl of a solution containing 0.1 M Tris-HCl, pH 8.0, 0.25 M KCl, 0.3% glycerol, 30 μM NAD+, and 600 μM IMP (inosine monophosphate). The reaction was then initiated with 8 μl of IMPDH (0.75 μg/ml). After the enzyme was added, the solution was mixed for 20 seconds, and the reaction was run for 10 minutes. After a 50 second lag, the samples were read in a Cary spectrophotometer at 340 nm. Reading of the samples was continued until 300 seconds. Cuvette #1 contained the control reaction (no inhibitor), and cuvette #2 contained the positive control reaction in which Cibacron Blue was substituted for inhibitor. The substrate was kept at a level at least 10 times the Km.

[4] = common ligand mimics, Examples 23/24, read-out: IC50 for DOXPR

1-deoxy-D-xylulose-5-phosphate reductase (DOXPR), sequence (P45568 whole entry): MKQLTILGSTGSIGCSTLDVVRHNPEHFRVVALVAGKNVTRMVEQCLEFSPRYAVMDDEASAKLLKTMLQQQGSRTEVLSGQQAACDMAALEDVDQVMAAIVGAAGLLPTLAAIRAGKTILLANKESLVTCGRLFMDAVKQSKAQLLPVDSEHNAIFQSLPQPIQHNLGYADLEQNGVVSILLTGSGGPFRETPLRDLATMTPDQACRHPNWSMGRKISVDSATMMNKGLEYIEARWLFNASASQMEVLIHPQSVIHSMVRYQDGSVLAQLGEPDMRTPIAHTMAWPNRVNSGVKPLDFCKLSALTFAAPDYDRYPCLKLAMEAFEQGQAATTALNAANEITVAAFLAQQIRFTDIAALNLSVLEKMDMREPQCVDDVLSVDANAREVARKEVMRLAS
glyceraldehyde-3-phosphate dehydrogenase (GAPDH), sequence (P0A9B2 whole entry): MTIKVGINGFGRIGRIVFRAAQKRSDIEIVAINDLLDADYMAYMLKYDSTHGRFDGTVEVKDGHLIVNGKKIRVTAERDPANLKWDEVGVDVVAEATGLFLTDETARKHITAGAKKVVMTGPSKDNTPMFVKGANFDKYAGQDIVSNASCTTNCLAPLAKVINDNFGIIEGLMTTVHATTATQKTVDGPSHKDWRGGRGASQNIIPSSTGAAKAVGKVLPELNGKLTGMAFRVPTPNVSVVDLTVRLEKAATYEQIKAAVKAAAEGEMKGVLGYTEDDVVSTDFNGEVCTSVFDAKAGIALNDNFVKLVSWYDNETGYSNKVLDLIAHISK

## N=C1NC(=O)C(=Cc2ccc(C(=O)O)cc2)S1 [4-(2-imino-4-oxo-thiazolidin-5-ylidenemethyl)-benzoic acid]
[1]
  inhibition of GAPDH (in words): no inhibition
[1]; common ligand mimics, Examples 23/24, E. coli GAPDH, read-out: IC50 for GAPDH
  IC50: > 100 µM
[2]; [4]
  IC50: > 25 µM
[3]
  IC50: > 40 µM

## COc1cc(O)ccc1C=C1SC(=N)NC1=O [5-(4-hydroxy-2-methoxy-benzylidene)-2-imino-thiazolidin-4-one]
[1]
  inhibition of GAPDH (in words): no inhibition
[2]; [4]
  IC50: > 100 µM
[3]; Example 24 (FIG. 6)
  inhibition of IMPDH (in words): no inhibition

## COc1cc(C=C2SC(N)=NC2=O)ccc1O [5-(4-hydroxy-3-methoxy-benzylidene)-2-imino-thiazolidin-4-one]
[2]
  IC50: > 100 µM
[3]
  IC50: > 100 µM

## N=C1NC(=O)C(=Cc2ccc(O)c([N+](=O)[O-])c2)S1 [5-(4-hydroxy-3-nitro-benzylidene)-2-imino-thiazolidin-4-one]
[1]
  IC50: 153 µM
[2]
  IC50: > 100 µM
[3]
  IC50: > 75 µM

## Nc1c(S(=O)(=O)O)cc(Nc2ccc(Nc3nc(Cl)nc(Nc4ccccc4S(=O)(=O)O)n3)c(S(=O)(=O)O)c2)c2c1C(=O)c1ccccc1C2=O [Cibacron Blue, reference compound]
[2]; Cibacron Blue at 10.32 μM, read-out: inhibition of DOXPR, positive control
  inhibition at 10.32 µM: 70 to 80%
